Experimental data from patent US12570662B2, “Substituted pyrrolo[1,2-b]pyridazines as bifunctional degraders of interleukin-1 receptor-associated kinases” (Nurix Therapeutics, Inc., priority 2021, dated 2026).

Biological target: T1, IRAK4 (Homo sapiens, UniProt Q9NWZ3)
T1 construct: C-terminal HiBiT-tagged Jurkat cells (polyclonal cell line or clone 8D5); endogenous in cells; host or cells: Jurkat cells (polyclonal cell line or clone 8D5), HiBiT-tagged
T1 sequence (Q9NWZ3 1-460): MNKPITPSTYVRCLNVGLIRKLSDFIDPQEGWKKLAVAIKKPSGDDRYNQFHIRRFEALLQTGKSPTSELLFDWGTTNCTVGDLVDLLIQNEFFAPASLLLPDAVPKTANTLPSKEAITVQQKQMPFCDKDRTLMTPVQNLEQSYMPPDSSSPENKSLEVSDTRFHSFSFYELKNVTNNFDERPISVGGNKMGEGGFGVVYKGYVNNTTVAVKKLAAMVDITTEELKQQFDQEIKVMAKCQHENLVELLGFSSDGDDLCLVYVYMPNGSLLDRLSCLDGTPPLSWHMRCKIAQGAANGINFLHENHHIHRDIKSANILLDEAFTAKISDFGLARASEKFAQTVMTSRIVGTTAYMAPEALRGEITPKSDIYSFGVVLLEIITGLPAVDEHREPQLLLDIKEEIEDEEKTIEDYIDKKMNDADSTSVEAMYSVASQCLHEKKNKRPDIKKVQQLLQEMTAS
Test: IRAK4 Degradation HiBit Assay
Type: cell-based
Settings: C-terminal HiBiT-tagged Jurkat cells, 4 hrs incubation; for DC50: % IRAK4 remaining, four-parameter fit (IC50 used as DC50); for Dmax: from fit of % IRAK4 remaining, read-out: Dmax
Summary of the method: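 Degradation was quantified by luminescence after adding lytic detection reagent containing LgBiT to HiBiT-tagged Jurkat cells (polyclonal or clone 8D5). Cells were treated 4 h at 32 °C across 11 concentrations from 10 μM to 0.1 nM final. Four-parameter curve fitting of % IRAK4 remaining versus DMSO gave DC50 and Dmax.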

SMILES	DC50 [nM]	Dmax [%]
CNc1cc(-c2ccc3cc(C#N)cnn23)ncc1-c1nnc([C@H]2CC[C@H](N(C)CC3CCN(c4ccc([C@@H]5CCC(=O)NC5=O)cn4)CC3)CC2)s1 (racemic) [Example 52, 7-[4-(methylamino)-5-{5-[(1r,4r)-4-{[(1-{5-[(3RS)-2,6-dioxopiperidin-3-yl]pyridin-2-yl}piperidin-4-yl)methyl](methyl)amino}cyclohexyl]-1,3,4-thiadiazol-2-yl}pyridin-2-yl]pyrrolo[1,2-b]pyridazine-3-carbonitrile]	19	113
CC(C)Nc1cc(-c2ccc3cc(C#N)cnn23)ncc1-c1nnc(N2CC3CCC(C2)N3CC2CCN(c3ccc([C@H]4CCC(=O)NC4=O)cc3)CC2)s1 (racemic) [Example 72, rac-7-[5-(5-{8-[(1-{4-[(3R)-2,6-dioxopiperidin-3-yl]phenyl}piperidin-4-yl)methyl]-3,8-diazabicyclo[3.2.1]octan-3-yl}-1,3,4-thiadiazol-2-yl)-4-[(propan-2-yl)amino]pyridin-2-yl]pyrrolo[1,2-b]pyridazine-3-carbonitrile]	45	60
N#Cc1cnn2c(-c3cc(NC4CCOCC4)c(-c4nnc(N5CC6CCC(C5)N6CC5CCN(c6ccc([C@H]7CCC(=O)NC7=O)cc6)CC5)s4)cn3)ccc2c1 (racemic) [Example 85, rac-7-[5-(5-{8-[(1-{4-[(3R)-2,6-dioxopiperidin-3-yl]phenyl}piperidin-4-yl)methyl]-3,8-diazabicyclo[3.2.1]octan-3-yl}-1,3,4-thiadiazol-2-yl)-4-[(oxan-4-yl)amino]pyridin-2-yl]pyrrolo[1,2-b]pyridazine-3-carbonitrile]	25	73
N#Cc1cnn2c(-c3cc(NC4(C#N)CC4)c(-c4nnc(N5CC6CCC(C5)N6CC5CCN(c6ccc([C@H]7CCC(=O)NC7=O)cn6)CC5)s4)cn3)ccc2c1 (racemic) [Example 103, rac-7-{4-[(1-cyanocyclopropyl)amino]-5-(5-{8-[(1-{5-[(3R)-2,6-dioxopiperidin-3-yl]pyridin-2-yl}piperidin-4-yl)methyl]-3,8-diazabicyclo[3.2.1]octan-3-yl}-1,3,4-thiadiazol-2-yl)pyridin-2-yl}pyrrolo[1,2-b]pyridazine-3-carbonitrile]	12	106
N#Cc1cnn2c(-c3cc(N[C@H]4CCOC4)c(-c4nnc(N5CCN(CC6CCN(c7ccc(C8CCC(=O)NC8=O)cn7)CC6)CC5)s4)cn3)ccc2c1 (mixture of isomers) [Example 92, 7-[5-(5-{4-[(1-{5-[(3RS)-2,6-dioxopiperidin-3-yl]pyridin-2-yl}piperidin-4-yl)methyl]piperazin-1-yl}-1,3,4-thiadiazol-2-yl)-4-{[(3S)-oxolan-3-yl]amino}pyridin-2-yl]pyrrolo[1,2-b]pyridazine-3-carbonitrile]	24	114
CCNc1cc(-c2ccc3cc(C#N)cnn23)ncc1-c1nnc(N2CC3CCC(C2)N3CC2CCN(c3ccc([C@@H]4CCC(=O)NC4=O)cc3)CC2)s1 (single isomer, unassigned) [Example 126]	43	108
N#Cc1cnn2c(-c3cc(NC4CCOCC4)c(-c4nnc(N5CCN(C[C@@H]6CCN(c7ccc([C@H]8CCC(=O)NC8=O)cn7)C6)CC5)s4)cn3)ccc2c1 (racemic) [Example 13, 7-{5-[5-(4-{[(3RS)-1-{5-[(3RS&)-2,6-dioxopiperidin-3-yl]pyridin-2-yl}pyrrolidin-3-yl]methyl}piperazin-1-yl)-1,3,4-thiadiazol-2-yl]-4-[(oxan-4-yl)amino]pyridin-2-yl}pyrrolo[1,2-b]pyridazine-3-carbonitrile]	32	66
N#Cc1cnn2c(-c3cc(NC4CC4)c(-c4nnc(N5CC6CCC(C5)N6CC5CCN(c6ccc([C@@H]7CCC(=O)NC7=O)cn6)CC5)s4)cn3)ccc2c1 (single isomer, unassigned) [Example 125]	30	106

Next, values leading:

DC50 [nM]	Dmax [%]	SMILES
12	109	CNc1cc(-c2ccc3cc(C#N)cnn23)ncc1-c1nnc([C@H]2CC[C@H](CN3CCC(c4ccc([C@@H]5CCC(=O)NC5=O)cn4)CC3)CC2)s1 (racemic) [Example 38, 7-[4-(methylamino)-5-{5-[(1r,4r)-4-[(4-{5-[(3RS)-2,6-dioxopiperidin-3-yl]pyridin-2-yl}piperidin-1-yl)methyl]cyclohexyl]-1,3,4-thiadiazol-2-yl}pyridin-2-yl]pyrrolo[1,2-b]pyridazine-3-carbonitrile]
55	93	N#Cc1cnn2c(-c3cc(NC4CCOCC4)c(-c4nnc(N5CCN(CC6CCN(c7ccc(C8CCC(=O)NC8=O)c(F)c7)CC6)CC5)s4)cn3)ccc2c1 (racemic) [Example 3, rac-7-[5-(5-{4-[(1-{4-[(3R)-2,6-dioxopiperidin-3-yl]-3-fluorophenyl}piperidin-4-yl)methyl]piperazin-1-yl}-1,3,4-thiadiazol-2-yl)-4-[(oxan-4-yl)amino]pyridin-2-yl]pyrrolo[1,2-b]pyridazine-3-carbonitrile]
41	71	CC(C)Nc1cc(-c2ccc3cc(C#N)cnn23)ncc1-c1nnc(N2CCN(C[C@@H]3CCN(c4ccc([C@H]5CCC(=O)NC5=O)cn4)C3)CC2)s1 (racemic) [Example 10, 7-{5-[5-(4-{[(3RS)-1-{5-[(3RS&)-2,6-dioxopiperidin-3-yl]pyridin-2-yl}pyrrolidin-3-yl]methyl}piperazin-1-yl)-1,3,4-thiadiazol-2-yl]-4-[(propan-2-yl)amino]pyridin-2-yl}pyrrolo[1,2-b]pyridazine-3-carbonitrile]
21	99	N#Cc1cnn2c(-c3cc(NC4CCOCC4)c(-c4nnc(N5CCN(CC6CCN(c7ccc(C8CCC(=O)NC8=O)nc7)CC6)CC5)s4)cn3)ccc2c1 (racemic) [Example 106, rac-7-[5-(5-{4-[(1-{6-[(3R)-2,6-dioxopiperidin-3-yl]pyridin-3-yl}piperidin-4-yl)methyl]piperazin-1-yl}-1,3,4-thiadiazol-2-yl)-4-[(oxan-4-yl)amino]pyridin-2-yl]pyrrolo[1,2-b]pyridazine-3-carbonitrile]
84	90	CC1(Nc2cc(-c3ccc4cc(C#N)cnn34)ncc2-c2nnc(N3CCN(CC4CCN(c5ccc(N6CCC(=O)NC6=O)cn5)CC4)CC3)s2)COC1 [Example 80, 7-(5-{5-[4-({1-[5-(2,4-dioxo-1,3-diazinan-1-yl)pyridin-2-yl]piperidin-4-yl}methyl)piperazin-1-yl]-1,3,4-thiadiazol-2-yl}-4-[(3-methyloxetan-3-yl)amino]pyridin-2-yl)pyrrolo[1,2-b]pyridazine-3-carbonitrile]
12	41	N#Cc1cnn2c(-c3cc(NC4CCOCC4)c(-c4nnc(N5CCN(CC6CCN(C(=O)c7ccc(F)c(N8CCC(=O)NC8=O)c7)CC6)CC5)s4)cn3)ccc2c1 [Example 62, 7-(5-{5-[4-({1-[3-(2,4-dioxo-1,3-diazinan-1-yl)-4-fluorobenzoyl]piperidin-4-yl}methyl)piperazin-1-yl]-1,3,4-thiadiazol-2-yl}-4-[(oxan-4-yl)amino]pyridin-2-yl)pyrrolo[1,2-b]pyridazine-3-carbonitrile]
